Columns and labels:
Test in all cases: Test C pre-/postemergence greenhouse test
Assay type in all cases: in vivo
[1] = system: morningglory (Ipomoea coccinea); settings: Preemergence, scale 0 to 100
Procedure, shortened: (§1)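 Test chemicals were formulated in a non-phytotoxic solvent mixture with surfactant and applied preemergence to seeds in silt loam soil or postemergence to plants of 2 to 18 cm in a peat/vermiculite medium. After 13 to 21 d in a greenhouse, response was visually scored from 0 (no effect) to 100 (complete control).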

[2] = system: galium (catchweed bedstraw, Galium aparine); settings: scale 0 to 100
Procedure, shortened: as §1

[3] = system: johnsongrass (Sorghum halepense); settings: Preemergence, scale 0 to 100
Procedure, shortened: as §1

[4] = system: ryegrass, Italian (Lolium multiflorum); settings: Preemergence, scale 0 to 100
Procedure, shortened: as §1

[5] = system: crabgrass, large (Digitaria sanguinalis); settings: scale 0 to 100
Procedure, shortened: as §1

[6] = system: soybean (Glycine max); settings: scale 0 to 100
Procedure, shortened: as §1

[7] = system: waterhemp (common waterhemp, Amaranthus rudis); settings: scale 0 to 100
Procedure, shortened: as §1

[8] = system: ragweed (common ragweed, Ambrosia elatior); settings: scale 0 to 100
Procedure, shortened: as §1

[9] = system: kochia (Kochia scoparia); settings: scale 0 to 100
Procedure, shortened: as §1

[10] = system: corn (Zea mays); settings: scale 0 to 100
Procedure, shortened: as §1

[11] = system: oilseed rape (Brassica napus); settings: Preemergence, scale 0 to 100
Procedure, shortened: as §1

[12] = system: velvetleaf (Abutilon theophrasti); settings: Preemergence, scale 0 to 100
Procedure, shortened: as §1

[13] = system: surinam grass (Brachiaria decumbens); settings: Preemergence, scale 0 to 100
Procedure, shortened: as §1

Cc1ccc2ccc(F)cc2c1-c1c(O)c(Cl)nn(C)c1=O [Cpd. No. 21]
Plant response rating, Morningglory ([1]; 31 g ai/ha): 40
Plant response rating, Morningglory ([1]; 61 g ai/ha): 5
Plant response rating, Morningglory ([1]; 62 g ai/ha): 80
Plant response rating, Morningglory ([1]; 125 g ai/ha): 95
Plant response rating, Galium ([2]; Postemergence, 16 g ai/ha): 90
Plant response rating, Galium ([2]; Postemergence, 31 g ai/ha): 95
Plant response rating, Galium ([2]; Postemergence, 62 g ai/ha): 98
Plant response rating, Galium ([2]; Postemergence, 125 g ai/ha): 78
Plant response rating, Galium ([2]; Preemergence, 31 g ai/ha): 95
Plant response rating, Galium ([2]; Preemergence, 61 g ai/ha): 90
Plant response rating, Galium ([2]; Preemergence, 62 g ai/ha): 95
Plant response rating, Galium ([2]; Preemergence, 125 g ai/ha): 95
Plant response rating, Johnsongrass ([3]; 31 g ai/ha): 10
Plant response rating, Johnsongrass ([3]; 61 g ai/ha): 5
Plant response rating, Johnsongrass ([3]; 62 g ai/ha): 50
Plant response rating, Johnsongrass ([3]; 125 g ai/ha): 65
Plant response rating, Ryegrass, Italian ([4]; 31 g ai/ha): 98
Plant response rating, Ryegrass, Italian ([4]; 61 g ai/ha): 50
Plant response rating, Ryegrass, Italian ([4]; 62 g ai/ha): 98
Plant response rating, Ryegrass, Italian ([4]; 125 g ai/ha): 100
Plant response rating, Crabgrass, Large ([5]; Postemergence, 16 g ai/ha): 40
Plant response rating, Crabgrass, Large ([5]; Postemergence, 31 g ai/ha): 70
Plant response rating, Crabgrass, Large ([5]; Postemergence, 62 g ai/ha): 40
Plant response rating, Crabgrass, Large ([5]; Postemergence, 125 g ai/ha): 70
Plant response rating, Crabgrass, Large ([5]; Preemergence, 31 g ai/ha): 25
Plant response rating, Crabgrass, Large ([5]; Preemergence, 61 g ai/ha): 0
Plant response rating, Crabgrass, Large ([5]; Preemergence, 62 g ai/ha): 30
Plant response rating, Crabgrass, Large ([5]; Preemergence, 125 g ai/ha): 65
Plant response rating, Soybean ([6]; Postemergence, 16 g ai/ha): 10
Plant response rating, Soybean ([6]; Postemergence, 31 g ai/ha): 13
Plant response rating, Soybean ([6]; Postemergence, 62 g ai/ha): 20
Plant response rating, Soybean ([6]; Postemergence, 125 g ai/ha): 23
Plant response rating, Soybean ([6]; Preemergence, 31 g ai/ha): 0
Plant response rating, Soybean ([6]; Preemergence, 61 g ai/ha): 0
Plant response rating, Soybean ([6]; Preemergence, 62 g ai/ha): 0
Plant response rating, Soybean ([6]; Preemergence, 125 g ai/ha): 0
Plant response rating, Waterhemp ([7]; Postemergence, 16 g ai/ha): 80
Plant response rating, Waterhemp ([7]; Postemergence, 31 g ai/ha): 85
Plant response rating, Waterhemp ([7]; Postemergence, 62 g ai/ha): 98
Plant response rating, Waterhemp ([7]; Postemergence, 125 g ai/ha): 90
Plant response rating, Waterhemp ([7]; Preemergence, 31 g ai/ha): 85
Plant response rating, Waterhemp ([7]; Preemergence, 61 g ai/ha): 80
Plant response rating, Waterhemp ([7]; Preemergence, 62 g ai/ha): 95
Plant response rating, Waterhemp ([7]; Preemergence, 125 g ai/ha): 98
Plant response rating, Ragweed ([8]; Postemergence, 16 g ai/ha): 90
Plant response rating, Ragweed ([8]; Postemergence, 31 g ai/ha): 95
Plant response rating, Ragweed ([8]; Postemergence, 62 g ai/ha): 98
Plant response rating, Ragweed ([8]; Postemergence, 125 g ai/ha): 98
Plant response rating, Ragweed ([8]; Preemergence, 31 g ai/ha): 100
Plant response rating, Ragweed ([8]; Preemergence, 61 g ai/ha): 45
Plant response rating, Ragweed ([8]; Preemergence, 62 g ai/ha): 98
Plant response rating, Ragweed ([8]; Preemergence, 125 g ai/ha): 95
Plant response rating, Kochia ([9]; Postemergence, 16 g ai/ha): 13
Plant response rating, Kochia ([9]; Postemergence, 31 g ai/ha): 18
Plant response rating, Kochia ([9]; Postemergence, 62 g ai/ha): 28
Plant response rating, Kochia ([9]; Postemergence, 125 g ai/ha): 28
Plant response rating, Kochia ([9]; Preemergence, 31 g ai/ha): 20
Plant response rating, Kochia ([9]; Preemergence, 61 g ai/ha): 5
Plant response rating, Kochia ([9]; Preemergence, 62 g ai/ha): 70
Plant response rating, Kochia ([9]; Preemergence, 125 g ai/ha): 90
Plant response rating, Corn ([10]; Postemergence, 16 g ai/ha): 0
Plant response rating, Corn ([10]; Postemergence, 31 g ai/ha): 0
Plant response rating, Corn ([10]; Postemergence, 62 g ai/ha): 15
Plant response rating, Corn ([10]; Postemergence, 125 g ai/ha): 18
Plant response rating, Corn ([10]; Preemergence, 31 g ai/ha): 0
Plant response rating, Corn ([10]; Preemergence, 61 g ai/ha): 0
Plant response rating, Corn ([10]; Preemergence, 62 g ai/ha): 5
Plant response rating, Corn ([10]; Preemergence, 125 g ai/ha): 20
Plant response rating, Oilseed Rape ([11]; 31 g ai/ha): 85
Plant response rating, Oilseed Rape ([11]; 61 g ai/ha): 0
Plant response rating, Oilseed Rape ([11]; 62 g ai/ha): 98
Plant response rating, Oilseed Rape ([11]; 125 g ai/ha): 100
Plant response rating, Velvetleaf ([12]; 31 g ai/ha): 75
Plant response rating, Velvetleaf ([12]; 61 g ai/ha): 40
Plant response rating, Velvetleaf ([12]; 62 g ai/ha): 75
Plant response rating, Velvetleaf ([12]; 125 g ai/ha): 95
Plant response rating, Surinam Grass ([13]; 31 g ai/ha): 100
Plant response rating, Surinam Grass ([13]; 61 g ai/ha): 80
Plant response rating, Surinam Grass ([13]; 62 g ai/ha): 100
Plant response rating, Surinam Grass ([13]; 125 g ai/ha): 100

Source: patent US12435044B2, “Pyridazinone herbicides and pyridazinone intermediates used to prepare a herbicide” (FMC Corporation, priority 2018, dated 2025)
